Results taken from ChEMBL document CHEMBL1201862, “PubChem BioAssay data set” (2004).
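Assay format: 96-well plates, 48-hour exposure. GI50 = concentration required for 50% inhibition of growth.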 The source made the active and inactive calls. No stated cut-off is given here; in the data, active = GI50 up to about 1.1 µM and inactive = higher.

Legend:
Experiment in all cases: NCI-60 cell line screen, 48 h
CAKI-1 = tested on: CAKI-1
COLO 205 = tested on: COLO 205
HOP-62 = tested on: HOP-62
HOP-92 = tested on: HOP-92
K562 = tested on: K562
M14 = tested on: M14
MOLT-4 = tested on: MOLT-4
Malme-3M = tested on: Malme-3M
NCI-H226 = tested on: NCI-H226
NCI-H23 = tested on: NCI-H23
NCI-H522 = tested on: NCI-H522
OVCAR-5 = tested on: OVCAR-5
SF-268 = tested on: SF-268
SF-295 = tested on: SF-295
SF-539 = tested on: SF-539
SK-MEL-2 = tested on: SK-MEL-2
SN12C = tested on: SN12C
SNB-19 = tested on: SNB-19
SNB-75 = tested on: SNB-75
SW-620 = tested on: SW-620

Measured: GI50

CC1C(=O)N(c2ccccc2)NC12CCCc1ccccc12 (stereo not given)
inactive: CAKI-1 > 100 µM | COLO 205 > 100 µM | HOP-62 > 100 µM | HOP-92 > 100 µM | K562 > 100 µM | M14 > 100 µM | MOLT-4 > 100 µM | Malme-3M > 100 µM | NCI-H226 > 100 µM | NCI-H23 > 100 µM | NCI-H522 > 100 µM | OVCAR-5 > 100 µM | SF-268 > 100 µM | SF-295 > 100 µM | SF-539 > 100 µM | SK-MEL-2 > 100 µM | SN12C > 100 µM | SNB-19 > 100 µM | SNB-75 > 100 µM | SW-620 > 100 µM
